Measured values published in patent publication US11187660B2, “Fluorescent probes for monitoring voltage by photo-induced electron transfer” (The Regents of the University of California, priority 2011, dated 2021).
Values joined by “and” are separate entries in the source; they are usually repeats but may differ in a detail not shown here. Equal values may be shown once. Each block holds one compound with its values, some of them ahead of it.

Legend:
HEK293 cells = assay: Voltage sensitivity of fluorescence in voltage-clamped HEK cells (whole-cell recording); format: cell-based, human; settings: for voltage sensitivity ΔF/F per 100 mV: HEK293 cells voltage-clamped at −60 mV holding potential
Excerpt: (§1) Membrane voltage of cells loaded with VF1.4.Cl or VF2.4.Cl were controlled by making tight-seal whole-cell recordings. Cells were maintained at a holding potential of −60 mV and stepped for 50 ms to various depolarizing and hyperpolarizing potentials (FIG. 5A), while simultaneously acquiring epifluorescence images. For both sensors, depolarizing steps result in fluorescence increases while hyperpolarizing steps decrease fluorescence intensity, in keeping with our proposed mechanism. […] For di-4-ANEPPS, typical values are 0.08-0.12% per mV. The larger changes for VF1.4.Cl and VF2.4.Cl compared to di-4-ANEPPS are somewhat expected, since a PeT-based voltage sensor samples the entire emission spectrum, whereas electrochromic dyes are limited to the edge of the spectrum only. For both probes, the voltage responses are linear across the physiologically relevant ranges of −100 mV to +100 mV. To assess the speed of the optical response to voltage, VF2.4.Cl signals were monitored in response to voltage steps of 100 mV from a holding potential of −60 mV.
We characterized the voltage sensitivity of all three indicators by making tight-seal whole-cell recordings of HEK293 cells stained with the VF sensors. Cells were voltage-clamped at −60 mV holding potential and sequentially stepped to depolarizing and hyperpolarizing potentials at 20-mV increments (FIG. 9B). For all three dyes, depolarizing steps produced fluorescence increases, whereas hyperpolarizing steps produced fluorescence decreases, in keeping with the proposed PeT mechanism. The fluorescence response is linear over the range of −100 mV to +100 mV (FIG. 9C), with voltage sensitivities ΔF/F per 100 mV of 20±1% for VF1.4.Cl and 25±1% for VF2.4.Cl. This statistically significant increase in voltage sensitivity (P<0.05, two-tailed Student t test) is expected upon increasing the length of the molecular wire, and is 2.5- to 4-times more sensitive than di-4-ANEPPS, which, in our hands, gives sensitivities of between 6% and 10% ΔF/F per 100 mV. […] To investigate the speed of response of VF probes, we again made whole-cell recordings of cells stained with VF2.4.Cl, applied 100-mV depolarizing steps from a holding potential of −60 mV, and recorded both the electrophysiological signals and the optical signals.
Electrophysiological recordings of HEK293 cells and cultured neurons were performed with an Axopatch 200A or 200B amplifier (Molecular Devices) at room temperature. The signals were digitized with Digidata 1332A and recorded with pCLAMP 9 software (Molecular Devices) on a PC. Analysis of electrophysiological data was done with AxoGraph X (AxoGraphX), pCLAMP 9, and/or ClampFit (Molecular Devices). For most experiments the extracellular solution consisted of (in mM) 145 NaCl, 20 glucose, 10 HEPES, 3 KCl, 2 CaCl2, 1 MgCl2 (pH 7.35, 310 mOsm). The intracellular solution contained (in mM) 115 potassium gluconate, 10 BAPTA tetrapotassium salt, 10 HEPES, 5 NaCl, 10 KCl, 2 ATP disodium salt, 0.3 GTP trisodium salt (pH 7.25, 290 mOsm).
For studies to determine excitation sensitivity of dyes, illumination was provided by a Polychrom IV light source (T.I.L.L. Photonics GMBH) with a mechanical shutter (Uniblitz VS25). For all other studies, light was provided by an Xenon arc lamp powered by an Optiquip Power supply (Optiquip) with a mechanical shutter controlled by a Lambda 10-2 controller (Sutter). […]

leech Retzius cells = assay: Capacitative loading in leech Retzius cells; format: cell-based, Hirudo medicinalis; settings: hyperpolarizing current injection, dye at three times the working concentration
Excerpt: We injected hyperpolarizing current into the Retzius cells of leech ganglia preparations and compared the time constants for these voltage steps in ganglia under different dye loading conditions. The ganglia were stained with dye at three times the working concentration [either VF2.1.Cl or diSBA-C4-(3) (14)] and compared with unloaded cells.
Isolated midbody ganglia (Ganglia 8-16) were dissected from Hirudo medicinalis and the ventral side was desheathed using standard procedures. The voltage sensitive dye was combined with HEPES saline down to the desired concentration (100-300 nM), and 1.5 μL of a 20% (w/v) solution of Pluronic F-127 in DMSO. The dye was then continuously pumped over the ganglion to help with penetration into the cell membranes for 20-30 minutes. […]
Electrophysiological measurements were made with paired electrode recordings with resistances in the range of 20-40 MΩm. Electrode 1 acted as the recording electrode, which constantly monitored membrane potential, and electrode 2 acted as the current injecting electrode. […] The capacitance C was calculated with the formula C=tau*I/ΔV, where I=1 nA and the hyperpolarization ΔV was 15-18 mV. Tau was measured two ways: 1) the time required for the normalized curve to reach (1-1/e); 2) the time constant of the best fit exponential or sum of exponentials. […] Spontaneous Retzius cell activity was measured with a single electrode.

HEK cells = assay: Speed of optical response to voltage steps in HEK cells; format: cell-based, human; settings: 100 mV step from holding potential −60 mV
Excerpt: as §1, with “The larger changes for VF1.4.Cl and VF2.4.Cl compared to di-4-ANEPPS are somewhat expected, since a PeT-based voltage sensor samples the entire emission spectrum, whereas electrochromic dyes are limited to the edge of the spectrum only. For both probes, the voltage responses are linear across the physiologically relevant ranges of −100 mV to +100 mV.” left out
We characterized the voltage sensitivity of all three indicators by making tight-seal whole-cell recordings of HEK293 cells stained with the VF sensors. […] For all three dyes, depolarizing steps produced fluorescence increases, whereas hyperpolarizing steps produced fluorescence decreases, in keeping with the proposed PeT mechanism. The fluorescence response is linear over the range of −100 mV to +100 mV (FIG. 9C), with voltage sensitivities ΔF/F per 100 mV of 20±1% for VF1.4.Cl and 25±1% for VF2.4.Cl. […]

capacitative load on the membrane (leech Retzius cells): no difference from control cells
Structure (SMILES): CN(C)c1ccc(/C=C/c2ccc(/C=C/c3ccc(-c4c5cc(Cl)c(=O)cc-5oc5cc(O)c(Cl)cc45)c(S(=O)(=O)O)c3)cc2)cc1 [VF2.1.Cl, 5-(4-(4-(dimethyllamino)styryl)styryl)-2-(2,7-dichloro-6-hydroxy-3-oxo-3H-xanthen-9-yl)benzenesulfonic acid]
voltage sensitivity ΔF/F per 100 mV (HEK293 cells): 27±1%

Structure (SMILES): CCCCN(CCCC)c1ccc(/C=C/c2ccc(/C=C/c3ccc(-c4c5cc(Cl)c(=O)cc-5oc5cc(O)c(Cl)cc45)c(S(=O)(=O)O)c3)cc2)cc1 [VF2.4.Cl, 5-(4-(4-(dibutylamino)styryl)styryl)-2-(2,7-dichloro-6-hydroxy-3-oxo-3H-xanthen-9-yl)benzenesulfonic acid]
τoff, optical (HEK cells): 147±19 μs
τon, optical (HEK cells): 138±14 μs
voltage sensitivity ΔF/F per 100 mV (HEK293 cells): 25±1%
sensitivity, fractional fluorescence change (ΔF/F) versus change in membrane potential (HEK293 cells; HEK cells, holding potential −60 mV): 0.25±0.01 % per mV and 0.25 % per mV
